Tests used:
HIV-1 RT = HIV-1 RT (Human immunodeficiency virus type 1 group M subtype B, UniProt P04585); test: HIV-1 Reverse Transcriptase Assay: Inhibitor IC50 Determination; assay type: biochemical; details: purified recombinant enzyme, poly(rA)/oligo(dT)16 template-primer, 37° C. 30 min
Description: HIV-1 Reverse Transcriptase Assay: Inhibitor IC50 Determination.
HIV-1 RT assay was carried out in 96-well Millipore filtermat NOB50 plates using purified recombinant enzyme and a poly(rA)/oligo(dT)16 template-primer in a total volume of 50 μL. The assay constituents were 50 mM Tris/HCl, 50 mM NaCl, 1 mM EDTA, 6 mM MgCl2, 5 μM dTTP, 0.1 μCi [^3H] dTTP, 5 μg/ml poly (rA) pre annealed to 2.5 μg/ml oligo (dT)16 and a range of inhibitor concentrations in a final concentration of 10% DMSO. Reactions were initiated by adding 5 nM HIV-1 RT and after incubation at 37° C. for 30 min, they were stopped by the addition of 50 μl ice cold 20% TCA and allowed to precipitate at 4° C. for 30 min. The precipitates were collected by applying vacuum to the plate and sequentially washing with 2×200 μl of 10% TCA and 2×200 μl 70% ethanol. Finally the plates were dried and radioactivity counted in a Wallac Microbeta 1450 after the addition of 15 μl scintillation fluid per well. IC50's were calculated by plotting % inhibition versus log10 inhibitor concentrations.

[1] = test system: HXB2-strain of HIV in MT4 cells; test: Antiviral assay: protection of HIV-infected MT4 cells from cell-death (MTT); assay type: cell-based; details: Human immunodeficiency virus 1, 120 h; MT4 cells infected with HXB2-strain of HIV, 5 d, MTT viability
Description: Anti-HIV antiviral activity was assessed using an adaptation of the method of Pauwels et al. {Pauwels et al., 1988, J Virol Methods 20:309-321}. The method is based on the ability of compounds to protect HIV-infected T lymphoblastoid cells (MT4 cells) from cell-death mediated by the infection. The endpoint of the assay was calculated as the concentration of compound at which the cell viability of the culture was preserved by 50% (‘50% inhibitory concentration’, IC50). The cell viability of a culture was determined by the uptake of soluble, yellow 3-[4,5-dimethylthiazol-2-yl]-2,5-diphenyltetrazolium bromide (MTT) and its reduction to a purple insoluble formazan salt. After solubilization, spectrophotometric methods were employed to measure the amount of formazan product.
MT4 cells were prepared to be in logarithmic-phase growth and a total of 2×10^6 cells infected with the HXB2-strain of HIV at a multiplicity of 0.0001 infectious units of virus per cell in a total volume of between 200-500 microliters. The cells were incubated with virus for one h at 37° C. before removal of virus. The cells are then washed in 0.01 M phosphate buffered saline, pH 7.2 before being resuspensed in culture medium for incubation in culture with serial dilutions of test compound. The culture medium used was RPMI 1640 without phenol red, supplemented with penicillin, streptomycin, L-glutamine and 10% fetal calf serum (GM10).
Test compounds were prepared as 2 mM solutions in dimethyl sulphoxide (DMSO). Four replicate, serial 2-fold dilutions in GM10 were then prepared and 50 microliters amounts placed in 96-well plates over a final nanomolar concentration range of 625-1.22. Fifty microliters GM10 and 3.5×10^4 infected cells were then added to each well. Control cultures containing no cells (blank), uninfected cells (100% viability; 4 replicates) and infected cells without compound (total virus-mediated cell death; 4 replicates) were also prepared. The cultures were then incubated at 37° C. in a humidified atmosphere of 5% CO2 in air for 5 d.
A fresh solution of 5 mg/mL MTT was prepared in 0.01 M phosphate buffered saline, pH 7.2 and 20 microliters added to each culture. The cultures were further incubated as before for 2 h. They were then mixed by pipetting up and down and 170 microliters of Triton X-100 in acidified isopropanol (10% v/v Triton X-100 in 1:250 mixture of concentrated HCl in isopropanol). When the formazan deposit was fully solubilized by further mixing, the absorbance (OD) of the cultures was measured at 540 nm and 690 nm wavelength (690 nm readings were used as blanks for artifacts between wells). The percent protection for each treated culture was calculated using the equation: [formula]

Compound | IC50 (HIV-1 RT) | IC50 [1]
Cc1c(CO)c(C(C)C)c(Sc2cc(Cl)cc(Cl)c2)n1C | 930 nM | 580 nM
Cc1c(C(C)C)c(Sc2cc(Cl)cc(Cl)c2)n(Cc2ccncc2)c1C | 125 nM | 94 nM
CC(C)c1c(CO)c(C(C)C)n(Cc2ccncc2)c1Sc1cccc(Cl)c1 | 272 nM | 110 nM
Cc1c(CN=[N+]=[N-])c(C(C)C)c(Sc2cc(Cl)cc(Cl)c2)n1Cc1ccncc1 | 91 nM | 16 nM
Cc1c(CO)c(C(C)C)c(Sc2cc(Cl)ccc2Cl)n1Cc1ccncc1 | 86 nM | 69 nM
Cc1c(CO)c(C(C)C)c(Sc2ccc(F)cc2Cl)n1Cc1ccncc1 | 5430 nM | –
Cc1cc(C(C)C)c(Sc2cc(Cl)cc(Cl)c2)n1Cc1ccncc1 | 117 nM | 44 nM
COCc1c(C(C)C)c(Sc2cc(Cl)cc(Cl)c2)n(Cc2ccncc2)c1C | 658 nM | 91 nM
Cc1c(CO)c(C(C)C)c(Sc2ccccc2)n1Cc1ccncc1 | 260 nM | 11.5 nM
CC(=O)/C=C/c1cc(C(C)C)c(Sc2cc(Cl)cc(Cl)c2)n1Cc1ccncc1 | 972 nM | –
Cc1c(CO)c(C(C)C)c(Sc2cccc(Cl)c2)n1Cc1cscn1 | 4120 nM | –
CC(C)c1cc(CO)n(Cc2ccncc2)c1Sc1cc(Cl)cc(Cl)c1 | 289 nM | 183 nM
COC(=O)NCc1c(C(C)C)c(Sc2cc(Cl)cc(Cl)c2)n(Cc2ccncc2)c1C | 90 nM | –
CC(C)c1cc(COC(N)=O)n(Cc2ccncc2)c1Sc1cc(Cl)cc(Cl)c1 | 33 nM | 16 nM
Cc1c(CO)c(C)n(Cc2ccncc2)c1Sc1cc(Cl)cc(Cl)c1 | 287 nM | 49 nM
Cc1c(C#N)c(-c2ccccc2)c(Sc2cc(Cl)cc(Cl)c2)n1Cc1ccncc1 | 2450 nM | –
CC(C)c1c(CO)c(CO)n(Cc2ccncc2)c1Sc1cc(Cl)cc(Cl)c1 | 60 nM | 10 nM
CCc1c(CO)c(C(C)C)c(Sc2cc(Cl)cc(Cl)c2)n1Cc1ccncc1 | 43 nM | 11 nM
CC(=O)NCc1c(C(C)C)c(Sc2cc(Cl)cc(Cl)c2)n(Cc2ccncc2)c1C | 198 nM | 32 nM
Cc1c(CNC(=O)c2ccccc2)c(C(C)C)c(Sc2cc(Cl)cc(Cl)c2)n1Cc1ccncc1 | 283 nM | 84 nM
Cc1c(CO)c(-c2ccccc2)c(Sc2cc(Cl)cc(Cl)c2)n1Cc1ccncc1 | 493 nM | 407 nM
Cc1c(CO)c(C(C)C)c(Sc2cc(Cl)cc(Cl)c2)n1Cc1cccnc1 | 79 nM | 17.5 nM
Cc1c(C(N)=O)c(C(C)C)c(Sc2cc(Cl)cc(Cl)c2)n1Cc1ccncc1 | 150 nM | 22 nM

Reference: patent US6737429B2, “Pyrrole derivatives” (Hoffmann-La Roche Inc., priority 2000, dated 2004)
